According to PMC8589421, “Impact of Type II LRRK2 inhibitors on signaling and mitophagy” (Biochemical Journal, 2021):
Read-outs that look alike come from different tables or passages of the source.

What was measured:
Format in all cases: cell-based, mouse
[1] = tested on: Rab10 pThr73, LRRK2 [G2019S]; assay: Rab10 Thr73 phospho-immunoblot in LRRK2[G2019S] knock-in MEFs; conditions: LRRK2[G2019S] knock-in MEFs, 2 h, read-out: LRRK2 [G2019S] Rab10 pThr73 IC50
Procedure: (§1) Wild-type and homozygous LRRK2 [R1441C] (Jax, stock number: 009346), LRRK2[G2019S] Taconic, (model 13940) and LRRK2 [A2016T] (Jax, stock number: 021828)[7] knock-in MEF cells were isolated from littermate-matched mouse embryos on a C57BL/6J background at day E12.5 as described previously. MEFs were grown in Dulbecco's modified Eagle medium (DMEM GIBCO, #11960-085) containing 10% (by vol) fetal bovine serum (FBS), 2 mM L-glutamine, 100 U/ml penicillin, and […] streptomycin supplemented with non-essential amino acids and 1 mM sodium pyruvate. Human embryonic kidney 293 (HEK293) (#ATCC CRL-1573) and HeLa (#ATCC CCL-2) cells were purchased from American Tissue Culture Collection (ATCC) and cultured in DMEM containing 10% (by vol) FBS, 2 mM L-glutamine, 100 U/ml penicillin, and […] streptomycin. All cells were grown at 37°C, 5% (by vol) CO2 in a humidified atmosphere and regularly tested for mycoplasma contamination.
(§2) Inhibitors were dissolved in dimethyl sulfoxide (DMSO) (Sigma, #D2650). The inhibitors were diluted 1000× into cell medium. The equivalent volume of DMSO was added to the minus inhibitor controls. Experiments were performed in six-well plates, 10 cm dishes or 15 cm dishes depending on the amount of cell extract required.
(§3) Cells were lysed in an ice-cold lysis buffer containing 50 mM Tris–HCl, pH 7.4, 1% (by vol) Triton X-100, 10% (by vol) glycerol, 150 mM NaCl, 1 mM sodium orthovanadate, 50 mM NaF, 10 mM 2-glycerophosphate, 5 mM sodium pyrophosphate, 1 µg/ml microcystin-LR, and cOmplete EDTA-free protease inhibitor cocktail (Roche, #11836170001). Lysates were incubated on ice for 30 min and clarified by centrifugation at 20 800×g at 4°C for 20 min. Supernatants were quantified by Bradford assay (Bio-Rad Protein Assay Dye Reagent Concentrate #5000006) and samples prepared in 1× lithium dodecyl sulfate sample buffer final concentration (NuPage LDS Sample buffer 4× Invitrogen, #NP0008). When not deployed immediately, lysates were snap-frozen in liquid nitrogen and stored at −80°C until use. […]

[2] = tested on: LRRK2 Ser935 phosphorylation, LRRK2[G2019S]; assay: LRRK2 Ser935 phospho-immunoblot in LRRK2[G2019S] knock-in MEFs; conditions: Figure 4B
Procedure: as §1, with “All cells were grown at 37°C, 5% (by vol) CO2 in a humidified atmosphere and regularly tested for mycoplasma contamination.” left out
as §3, with “Lysates were incubated on ice for 30 min and clarified by centrifugation at 20 800×g at 4°C for 20 min.” left out, “#NP0008).” for “#NP0008). When not deployed immediately, lysates were snap-frozen in liquid nitrogen and stored at −80°C until use.”

[3] = tested on: LRRK2 Ser935 phosphorylation, LRRK2[R1441C]; assay: LRRK2 Ser935 phospho-immunoblot in LRRK2[R1441C] knock-in MEFs
Procedure: as §1, §2
Cells were lysed in an ice-cold lysis buffer containing 50 mM Tris–HCl, pH 7.4, 1% (by vol) Triton X-100, 10% (by vol) glycerol, 150 mM NaCl, 1 mM sodium orthovanadate, 50 mM NaF, 10 mM 2-glycerophosphate, 5 mM sodium pyrophosphate, 1 µg/ml microcystin-LR, and cOmplete EDTA-free protease inhibitor cocktail (Roche, #11836170001). Lysates were incubated on ice for 30 min and clarified by centrifugation at 20 800×g at 4°C for 20 min. Supernatants were quantified by Bradford assay (Bio-Rad Protein Assay Dye Reagent Concentrate #5000006) and samples prepared in 1× lithium dodecyl sulfate sample buffer final concentration (NuPage LDS Sample buffer 4× Invitrogen, #NP0008). When not deployed immediately, lysates were snap-frozen in liquid nitrogen and stored at −80°C until use.
Cell extracts were mixed with a quarter of a volume of NuPage LDS Sample buffer 4× Invitrogen and heated at 95°C for 5 min. […] At the end of electrophoresis, proteins were electrophoretically transferred onto the nitrocellulose membrane (GE Healthcare, Amersham Protran Supported 0.45 µm NC) at 100 V for 90 min on ice in the transfer buffer (48 mM Tris–HCl and 39 mM glycine supplemented with 20% methanol). Transferred membrane was blocked with 5% (w/v) skim milk powder dissolved in TBS-T [20 mM Tris–HCl, pH 7.5, 150 mM NaCl and 0.1% (v/v) Tween 20] at room temperature for 1 h. […]

[4] = tested on: Rab10 pThr73, LRRK2 [R1441C]; assay: Rab10 Thr73 phospho-immunoblot in LRRK2[R1441C] knock-in MEFs; conditions: LRRK2[R1441C] knock-in MEFs, 2 h, read-out: LRRK2 [R1441C] Rab10 pThr73 IC50
Procedure: as §1, §2, §3

[5] = tested on: Rab10 phosphorylation, LRRK2[A2016T]; assay: Rab10 Thr73 phospho-immunoblot in inhibitor resistant LRRK2[A2016T] knock-in MEFs; conditions: 2 h, up to 3 µM
Procedure: as §1, §2, §3

[6] = tested on: basal mitophagy, LRRK2 knock-out MEFs; assay: mito-QC basal mitophagy in LRRK2 knock-out primary MEFs; conditions: 24 h
Procedure: To assess mitophagy, wild type, G2019S knock in, and LRRK2 knock out primary mouse embryonic fibroblasts (MEFs) were derived, from time-mated pregnant females at E12.5 as previously described. Briefly, cells were plated on glass coverslips and incubated with DMEM (Gibco, 11960-044) supplemented with 10% FBS, 2 mM L-Glutamine (Gibco, 2503-081), 1% non-essential amino acids (Gibco, 11140-035), 1% Antibiotics (Penicillin/Streptomycin 100 U/ml penicillin and 100 µg/ml streptomycin; Gibco), and 150 µM β-Mercaptoethanol (Gibco, 21985-023) at 37°C under a humidified 5% CO2 atmosphere. […] GSK3357679A 100 nM (Ding et al., in prep) was used as a positive control. At the end of the treatment, MEFs were briefly washed twice in DPBS (Gibco, 14190-094), and fixed in 3.7% Paraformaldehyde pH 7.00 (Sigma, P6148), 200 mM HEPES, for 20 min. Cells were then washed two times with DMEM, 10 mM HEPES, and then incubated for 10 min with DMEM, 10 mM HEPES. […] Images were acquired using a Nikon Eclipse Ti-S fluorescence microscope with a 63× objective. Images were analyzed using the mito-QC counter as previously described. Experiments were performed in 3–4 independent experiments and data was analyzed with a one-way ANOVA followed by a Dunnett's multiple comparison test using the GraphPad Prism software (version 8.4.3 (686)).

With `Cc1ccc(C(=O)Nc2ccc(CN3CCN(C)CC3)c(C(F)(F)F)c2)cc1C#Cc1cnc2[nH]ncc2c1` [GZD-824] the IC50 [1] was 233 nM, the IC50 ([1]; Mus musculus) was 233 nM and the “effect on Ser935 phosphorylation in LRRK2[G2019S] cells” value [2] was “did not impact Ser935 phosphorylation”. The “time at which Ser935 phosphorylation plateaued” value ([3]; LRRK2[R1441C] cells, 1 μM) was 160 min, the “time by which Ser935 phosphorylation increased” value ([3]; LRRK2[R1441C] cells, 1 μM) was ≤ 40 min and the “effect on Ser935 phosphorylation in LRRK2[R1441C] knock-in cells” value ([3]; dose and time dependent) was “rescue Ser935 phosphorylation”. The IC50 [4] was 262 nM, the IC50 ([4]; Mus musculus) was 262 nM and the “effect of A2016T mutation on inhibition of Rab10 phosphorylation” value [5] was “markedly blocked”. The “impact on basal mitophagy in LRRK2 knock-out cells” value [6] was “neither GZD-824 or GSK3357679A impacted basal mitophagy”.
